Active and inactive are the calls of the source. The rule behind the calls is not given here. Bounds are passed on as bounds.

The target of one experiment is Cell division control protein 42 homolog (Homo sapiens) (UniProt P60953). In words: inhibition of fluorescent GTP binding to Cdc42 wt – biochemical, bead-based multiplex flow cytometry, additional SAR set, SAR follow-up (AID 2022).
Cell division control protein 42 homolog (Homo sapiens), sequence (P60953 whole entry, looked up): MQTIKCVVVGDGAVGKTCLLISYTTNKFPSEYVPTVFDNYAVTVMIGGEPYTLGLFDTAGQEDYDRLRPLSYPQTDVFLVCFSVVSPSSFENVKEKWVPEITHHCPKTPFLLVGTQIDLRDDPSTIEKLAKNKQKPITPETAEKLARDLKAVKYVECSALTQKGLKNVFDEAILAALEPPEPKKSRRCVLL
Conditions: not given
For orientation: In flow cytometry, cells or beads pass a laser one at a time.
For `O=C1C(c2c(O)[nH]c3c(F)cccc23)=Nc2ccccc21`, the EC50 (in general, the concentration needed to bring the measured effect to its halfway point) is > 30 µM (inactive).
On the same count and under the same terms, the value for `O=Nc1c(-c2c(O)[nH]c3ccccc23)[nH]c2ccccc12` was > 30 µM (inactive); that for `O=Nc1c(-c2c(O)[nH]c3c(Cl)cccc23)[nH]c2ccccc12` was > 30 µM (inactive).
Consider `O=Nc1c(-c2c(O)[nH]c3c(F)cccc23)[nH]c2ccccc12`, for which the EC50 entry is “inactive”.
On the same count and under the same terms, the value for `O=C1C(c2c(O)[nH]c3c(Br)cccc23)=Nc2ccccc21` was > 30 µM (inactive).
`O=C1C(c2c(O)[nH]c3c(Cl)cccc23)=Nc2ccccc21`: the EC50 result was “inactive”.
Take `O=C1C(c2c(O)[nH]c3ccc(Br)cc23)=Nc2ccccc21`: the EC50 is > 30 µM (inactive).
Still for that read-out and setting: the value for `O=C1C(c2c(O)[nH]c3ccccc23)=Nc2ccccc21` was > 30 µM (inactive); that for `O=Nc1c(-c2c(O)[nH]c3ccc(Br)cc23)[nH]c2ccccc12` was > 30 µM (inactive).
Still for that read-out and setting: the value for `O=C1N=c2ccccc2=C1c1[nH]c(=S)[nH]c1O` was > 30 µM (inactive); that for `O=C1N=c2ccccc2=C1c1[nH]c(=O)[nH]c1O` was > 30 µM (inactive); that for `O=Nc1c(-c2c(O)[nH]c3c(Br)cccc23)[nH]c2ccccc12` was > 30 µM (inactive).

The same experiment, now with this note: measured here: Ki for Cdc42 wildtype.
Take `O=Nc1c(-c2c(O)[nH]c3c(F)cccc23)[nH]c2ccccc12`: the Ki – broadly, the dissociation constant of the complex between target and ligand, obtained from inhibition or displacement – was found to be 5.93 µM.
Still for that read-out and setting: the value for `O=C1C(c2c(O)[nH]c3c(Cl)cccc23)=Nc2ccccc21` was 0.01 µM; that for `COc1ccc(-c2c(C#N)c(N)n(S(C)(=O)=O)c2C(=O)c2ccccc2)cc1Br` was 2.37 µM.
In the case of `COc1ccc(S(=O)(=O)n2c(N)c(C#N)c(-c3cncc(Br)c3)c2C(=O)c2ccccc2)cc1`, the Ki was found to be 4.81 µM.
Same read-out and setting: the value for `CC(C)Cc1ccc([C@H](C)C(=O)O)cc1` was 3.51 µM.
Still for that read-out and setting: the value for `N#Cc1c(-c2ccc(Cl)cc2)c(C(=O)c2ccccc2)n(S(=O)(=O)c2ccc([N+](=O)[O-])cc2)c1N` was 1.52 µM.
